Data: patent US5776900A, “Hemoregulatory peptides” (SmithKline Beecham Corporation, priority 1995, dated 1998)
Where no end group is shown, it is not given here. [ ]: non-standard residue; d: D form. pGlu = O=C1CC[C@@H](C(=O)O)N1

Tested on: human bone marrow stromal cell line, C6
Test: Induction of colony stimulating activity by stromal cells; CSA of supernatant read in soft agar assay (CFU-C)
Type: cell-based
Conditions: 5% C6 supernatant, Lewis rat bone marrow cells
Protocol: Induction of Colony Stimulating Activity by Stromal Cells
The human bone marrow stromal cell line, C6, is grown to confluency in plastic tissue culture dishes in RPMI-1640 medium and 5% FBS. On the day prior to the experiment this medium is changed to DMEM without added serum. To these cultures, the compounds are added for one hour, then washed from the cultures. The medium is replaced with fresh DMEM and the cells are incubated for 24 hours at 37° C., 5% CO2. After 24 hours the C6 cell culture supernatant is collected, sterile filtered, and frozen until it can be assayed for the presence of hematopoietic colony stimulating activity (CSA) as set forth below.
Bone marrow cells are obtained from Lewis rats. They are adjusted to 10^6 cells/ml in DMEM without serum. A single layer agar system utilizing the following is used: DMEM enriched with nutrients (NaHCO3, pyruvate, amino acids, vitamins, and HEPES buffer); 0.3% Bacto agar, and 20% Lewis rat serum. To this are added dilutions of C6 cell line supernatant (10-2.5%) from above along with rat bone marrow cells (final concentration=10^5 cells/ml). The agar plates are incubated at 37° C., 5% CO2 for 7-8 days. Colonies of proliferating bone marrow cells (CFU-C) are counted utilizing a microscope. The number of agar colonies counted is proportional to the amount of CSA present within the C6 bone marrow stromal cell line supernatant.

(pGlu-Glu-Asp)2 -Sub-(Lys)2 ([pGlu]ED[Sub]K; not fully specified; printed as (pGlu-Glu-Asp)2 -Sub-(Lys)2; also: dimer via suberoyl-lysine linker) [Example 2]
Hematopoietic Colony Stimulating Activity Using 5% Supernatant, Percent of Control (dose 0.01 ng/ml): 97% of Control | Hematopoietic Colony Stimulating Activity Using 5% Supernatant, Percent of Control (dose 0.1 ng/ml): 154% of Control | Hematopoietic Colony Stimulating Activity Using 5% Supernatant, Percent of Control (dose 1 ng/ml): 188% of Control | Hematopoietic Colony Stimulating Activity Using 5% Supernatant, Percent of Control (dose 10 ng/ml): 207% of Control | Hematopoietic Colony Stimulating Activity Using 5% Supernatant, Percent of Control (dose 100 ng/ml): 241% of Control | Hematopoietic Colony Stimulating Activity Using 5% Supernatant, Percent of Control (dose 1000 ng/ml): 192% of Control
